# From patent publication US12441762B2, “Hepatitis c virus NS3/4A protease inhibitors” (priority 2019, dated 2025)
# How the values were obtained:
# [1] = molecular target: T1, HCV NS3/4A protease D168A variant (Hepatitis C virus genotype 1a, UniProt P27958, C1185S/D1194A); test: biochemical; type: biochemical
# T1 construct: His-tag (cleaved yes); made in house; host or cells: Escherichia coli BL21(DE3), PET28a vector
# Procedure: (§1) The HCV GT1a NS3/4A protease gene described in the Bristol Myers Squibb patent was synthesized by GenScript and cloned into a PET28a expression vector. Cys159 was mutated to a serine residue to prevent disulfide bond formation and facilitate crystallization. The D168A gene was engineered using the site-directed mutagenesis protocol from Stratagene. Protein expression and purification were carried out as previously described.
# (§2) Km constants for GT1 and D168A protease were previously determined. […] Inner filter effect corrections were applied to the initial velocities (Vo) at each substrate concentration. Vo versus substrate concentration graphs were globally fit to the Michaelis-Menten equation to obtain the Km value.
# (§3) For each assay, 2 nM of NS3/4A protease (GT1a and D168A) was pre-incubated at room temperature for 1 h with increasing concentration of inhibitors in assay buffer (50 mM Tris, 5% glycerol, 10 mM DTT, 0.6 mM LDAO, and 4% dimethyl sulfoxide, pH 7.5). Inhibition assays were performed in non-binding surface 96-well black half-area plates (Corning) in a reaction volume of 60 μL. […] Three independent data sets were collected for each inhibitor with each protease construct.
# [2] = molecular target: T2, wild-type HCV NS3/4A protease (GT1a) (Hepatitis C virus genotype 1a, UniProt P27958, C1185S); test: biochemical; type: biochemical
# T2 construct: His-tag (cleaved yes); made in house; host or cells: Escherichia coli BL21(DE3), PET28a vector
# T2 sequence (P27958 1027-1208 C1185S): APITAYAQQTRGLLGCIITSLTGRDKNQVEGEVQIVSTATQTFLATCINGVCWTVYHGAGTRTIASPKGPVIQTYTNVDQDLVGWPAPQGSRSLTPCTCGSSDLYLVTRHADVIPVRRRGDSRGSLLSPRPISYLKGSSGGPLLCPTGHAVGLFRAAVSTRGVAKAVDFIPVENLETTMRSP
# Procedure: as §1, §2, §3
# T1 sequence (P27958 1027-1208 C1185S/D1194A): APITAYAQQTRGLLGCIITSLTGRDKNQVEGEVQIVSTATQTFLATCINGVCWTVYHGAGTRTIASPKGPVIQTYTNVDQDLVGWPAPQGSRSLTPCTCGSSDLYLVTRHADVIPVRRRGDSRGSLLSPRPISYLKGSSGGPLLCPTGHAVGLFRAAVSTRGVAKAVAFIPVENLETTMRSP
SMILES,Ki [1] [nM],Ki [2] [nM]
"COc1ccc2nc(C)c(O[C@@H]3C[C@H]4C(=O)N[C@]5(C(=O)NS(=O)(=O)C6(C)CC6)C[C@H]5/C=C\CCCCC[C@H](NC(=O)OC5CCC5)C(=O)N4C3)nc2c1 [NR01-127, Cyclobutyl ((2R,6S,13aS,14aR,16aS,Z)-2-((7-methoxy-3-methylquinoxalin-2-yl)oxy)-14a-(((1-methylcyclopropyl)sulfonyl)carbamoyl)-5,16-dioxo-1,2,3,5,6,7,8,9,10,11,13a,14,14a,15,16,16a-hexadecahydrocyclopropa[e]pyrrolo[1,2-a][1,4]diazacyclopentadecin-6-yl)carbamate]",52.4 ± 9,0.3 ± 0.2
"COc1ccc2nc(C)c(O[C@@H]3C[C@H]4C(=O)N[C@]5(C(=O)NS(=O)(=O)C6(C)CC6)C[C@H]5/C=C\CCCCC[C@H](NC(=O)O[C@@H](C)C(F)(F)F)C(=O)N4C3)nc2c1 [NR02-23, (S)-1,1,1-Trifluoropropan-2-yl ((2R,6S,13aS,14aR,16aS,Z)-2-((7-methoxy-3-methylquinoxalin-2-yl)oxy)-14a-(((1-methylcyclopropyl)sulfonyl)carbamoyl)-5,16-dioxo-1,2,3,5,6,7,8,9,10,11,13a,14,14a,15,16,16a-hexadecahydrocyclopropa[e]pyrrolo [1,2-a][1,4]diazacyclopentadecin-6-yl)carbamate]",40 ± 6,0.74 ± 0.2
"COc1ccc2nc(C)c(O[C@@H]3C[C@H]4C(=O)N[C@]5(C(=O)NS(=O)(=O)C6(C)CC6)C[C@H]5/C=C\CCCCC[C@H](NC(=O)OC5CC(F)(F)C5)C(=O)N4C3)nc2c1 [NR01-149, 3,3-Difluorocyclobutyl ((2R,6S,13aS,14aR,16aS,Z)-2-((7-methoxy-3-methylquinoxalin-2-yl)oxy)-14a-(((1-methylcyclopropyl)sulfonyl)carbamoyl)-5,16-dioxo-1,2,3,5,6,7,8,9,10,11,13a,14,14a,15,16,16a-hexadecahydrocyclopropa[e]pyrrolo[1,2-a][1,4]diazacyclopentadecin-6-yl)carbamate]",26 ± 1,0.62 ± 0.3
"CCC(C)(C)OC(=O)N[C@H]1CCCCC/C=C\[C@@H]2C[C@@]2(C(=O)NS(=O)(=O)C2(C)CC2)NC(=O)[C@@H]2C[C@@H](Oc3nc4cc(OC)ccc4nc3C(F)(F)F)CN2C1=O [NR02-47, tert-Pentyl ((2R,6S,13aS,14aR,16aS,Z)-2-((7-methoxy-3-(trifluoromethyl)quinoxalin-2-yl)oxy)-14a-(((1-methylcyclopropyl)sulfonyl)carbamoyl)-5,16-dioxo-1,2,3,5,6,7,8,9,10,11,13a,14,14a,15,16,16a-hexadecahydrocyclopropa[e]pyrrolo[1,2-a][1,4]diazacyclopentadecin-6-yl)carbamate]",15.1 ± 1,2.67 ± 0.23
"COc1ccc2nc(C(F)(F)F)c(O[C@@H]3C[C@H]4C(=O)N[C@]5(C(=O)NS(=O)(=O)C6(C)CC6)C[C@H]5/C=C\CCCCC[C@H](NC(=O)OCC5(C)CC5)C(=O)N4C3)nc2c1 [NR01-117, (1-Methylcyclopropyl)methyl ((2R,6S,13aS,14aR,16aS,Z)-2-((7-methoxy-3-(trifluoromethyl)quinoxalin-2-yl)oxy)-14a-(((1-methylcyclopropyl)sulfonyl)carbamoyl)-5,16-dioxo-1,2,3,5,6,7,8,9,10,11,13a,14,14a,15,16,16a-hexadecahydrocyclopropa[e]pyrrolo[1,2-a][1,4]diazacyclopentadecin-6-yl)carbamate]",18.6 ± 2,2.89 ± 0.19
"COc1ccc2nc(C)c(O[C@@H]3C[C@H]4C(=O)N[C@]5(C(=O)NS(=O)(=O)C6(C)CC6)C[C@H]5/C=C\CCCCC[C@H](NC(=O)OCC5(C)CC5)C(=O)N4C3)nc2c1 [NR01-115, (1-Methylcyclopropyl)methyl ((2R,6S,13aS,14aR,16aS,Z)-2-((7-methoxy-3-methylquinoxalin-2-yl)oxy)-14a-(((1-methylcyclopropyl)sulfonyl)carbamoyl)-5,16-dioxo-1,2,3,5,6,7,8,9,10,11,13a,14,14a,15,16,16a-hexadecahydrocyclopropa[e]pyrrolo[1,2-a][1,4]diazacyclopentadecin-6-yl)carbamate]",21.6 ± 1.7,0.65 ± 0.2
"COc1ccc2nc(C)c(O[C@@H]3C[C@H]4C(=O)N[C@]5(C(=O)NS(=O)(=O)C6(C)CC6)C[C@H]5/C=C\CCCCC[C@H](NC(=O)OCC5(C(F)(F)F)CC5)C(=O)N4C3)nc2c1 [NR02-49, (1-(Trifluoromethyl)cyclopropyl)methyl ((2R,6S,13aS,14aR,16aS,Z)-2-((7-methoxy-3-methylquinoxalin-2-yl)oxy)-14a-(((1-methylcyclopropyl)sulfonyl)carbamoyl)-5,16-dioxo-1,2,3,5,6,7,8,9,10,11,13a,14,14a,15,16,16a-hexadecahydrocyclopropa[e]pyrrolo[1,2-a][1,4]diazacyclopentadecin-6-yl)carbamate]",27.4 ± 1.2,0.9 ± 0.1
"COc1ccc2nc(C(F)(F)F)c(O[C@@H]3C[C@H]4C(=O)N[C@]5(C(=O)NS(=O)(=O)C6(C)CC6)C[C@H]5/C=C\CCCCC[C@H](NC(=O)O[C@H](C)C(F)(F)F)C(=O)N4C3)nc2c1 [NR01-147, (R)-1,1,1-Trifluoropropan-2-yl ((2R,6S,13aS,14aR,16aS,Z)-2-((7-methoxy-3-(trifluoromethyl)quinoxalin-2-yl)oxy)-14a-(((1-methylcyclopropyl)sulfonyl)carbamoyl)-5,16-dioxo-1,2,3,5,6,7,8,9,10,11,13a,14,14a,15,16,16a-hexadecahydrocyclopropa[e]pyrrolo[1,2-a][1,4]diazacyclopentadecin-6-yl)carbamate]",17 ± 2.4,2.8 ± 0.7
"COc1ccc2nc(C(F)(F)F)c(O[C@@H]3C[C@H]4C(=O)N[C@]5(C(=O)NS(=O)(=O)C6(C)CC6)C[C@H]5/C=C\CCCCC[C@H](NC(=O)OCC(C)C)C(=O)N4C3)nc2c1 [NR02-41, Isobutyl ((2R,6S,13aS,14aR,16aS,Z)-2-((7-methoxy-3-(trifluoromethyl)quinoxalin-2-yl)oxy)-14a-(((1-methylcyclopropyl)sulfonyl)carbamoyl)-5,16-dioxo-1,2,3,5,6,7,8,9,10,11,13a,14,14a,15,16,16a-hexadecahydrocyclopropa[e]pyrrolo[1,2-a][1,4]diazacyclopentadecin-6-yl)carbamate]",14.9 ± 1.4,4.01 ± 0.46
"COc1ccc2nc(C(F)(F)F)c(O[C@@H]3C[C@H]4C(=O)N[C@]5(C(=O)NS(=O)(=O)C6(C)CC6)C[C@H]5/C=C\CCCCC[C@H](NC(=O)OCC(C)(C)C)C(=O)N4C3)nc2c1 [NR02-48, Neopentyl ((2R,6S,13aS,14aR,16aS,Z)-2-((7-methoxy-3-(trifluoromethyl)quinoxalin-2-yl)oxy)-14a-(((1-methylcyclopropyl)sulfonyl)carbamoyl)-5,16-dioxo-1,2,3,5,6,7,8,9,10,11,13a,14,14a,15,16,16a-hexadecahydrocyclopropa[e]pyrrolo[1,2-a][1,4]diazacyclopentadecin-6-yl)carbamate]",13 ± 1.6,2.94 ± 0.14
"COc1ccc2nc(C)c(O[C@@H]3C[C@H]4C(=O)N[C@]5(C(=O)NS(=O)(=O)C6(C)CC6)C[C@H]5/C=C\CCCCC[C@H](NC(=O)OC(C)(C)C(F)(F)F)C(=O)N4C3)nc2c1 [AJ-71, 1,1,1-Trifluoro-2-methylpropan-2-yl ((2R,6S,13aS,14aR,16aS,Z)-2-((7-methoxy-3-methylquinoxalin-2-yl)oxy)-14a-(((1-methylcyclopropyl)sulfonyl)carbamoyl)-5,16-dioxo-1,2,3,5,6,7,8,9,10,11,13a,14,14a,15,16,16a-hexadecahydrocyclopropa[e]pyrrolo[1,2-a][1,4]diazacyclopentadecin-6-yl)carbamate]",39 ± 2.9,2.56 ± 0.44
"COc1ccc2nc(C(F)(F)F)c(O[C@@H]3C[C@H]4C(=O)N[C@]5(C(=O)NS(=O)(=O)C6(C)CC6)C[C@H]5/C=C\CCCCC[C@H](NC(=O)OC5(C)CC5)C(=O)N4C3)nc2c1 [NR02-31, 1-Methylcyclopropyl ((2R,6S,13aS,14aR,16aS,Z)-2-((7-methoxy-3-(trifluoromethyl)quinoxalin-2-yl)oxy)-14a-(((1-methylcyclopropyl)sulfonyl)carbamoyl)-5,16-dioxo-1,2,3,5,6,7,8,9,10,11,13a,14,14a,15,16,16a-hexadecahydrocyclopropa[e]pyrrolo[1,2-a][1,4]diazacyclopentadecin-6-yl)carbamate]",41.3 ± 7.3,11.4 ± 0.84
"COc1ccc2nc(C(F)(F)F)c(O[C@@H]3C[C@H]4C(=O)N[C@]5(C(=O)NS(=O)(=O)C6(C)CC6)C[C@H]5/C=C\CCCCC[C@H](NC(=O)OC5CCC5)C(=O)N4C3)nc2c1 [NR01-95, Cyclobutyl ((2R,6S,13aS,14aR,16aS,Z)-2-((7-methoxy-3-(trifluoromethyl)quinoxalin-2-yl)oxy)-14a-(((1-methylcyclopropyl)sulfonyl)carbamoyl)-5,16-dioxo-1,2,3,5,6,7,8,9,10,11,13a,14,14a,15,16,16a-hexadecahydrocyclopropa[e]pyrrolo[1,2-a][1,4]diazacyclopentadecin-6-yl)carbamate]",29.5 ± 1.8,8.53 ± 0.87
